Data taken from patent publication EP4768479A1 (Hubei Bio-Pharmaceutical Industrial Technological Institute …, priority 2023, dated 2025).

Each molecule was assayed against T1, AT2R (Homo sapiens, UniProt P50052) (assay: Binding assay of compounds to AT2R (Tag-lite HTRF ligand binding kit)).
T1 construct: purchased Cisbio #C1TT1AT2
T1 sequence (P50052 1-363): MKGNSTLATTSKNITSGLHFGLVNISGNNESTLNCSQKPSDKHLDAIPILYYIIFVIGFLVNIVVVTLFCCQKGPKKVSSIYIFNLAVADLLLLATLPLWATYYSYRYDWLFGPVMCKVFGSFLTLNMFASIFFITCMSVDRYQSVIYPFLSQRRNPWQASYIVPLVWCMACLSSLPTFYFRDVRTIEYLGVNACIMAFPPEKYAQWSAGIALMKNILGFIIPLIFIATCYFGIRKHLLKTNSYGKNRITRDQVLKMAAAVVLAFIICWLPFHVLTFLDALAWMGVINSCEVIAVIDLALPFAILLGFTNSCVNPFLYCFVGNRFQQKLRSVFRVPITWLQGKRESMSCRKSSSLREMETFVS
Method: The assay was performed in accordance with the manufacturer instructions of Angiotensin AT2 Receptor Ligand Binding Assay Kit (#C1TT1AT2, Cisbio). First, a 10 mM compound stock solution was diluted in a gradient at a 5× dilution ratio (including 10 concentrations, each with two replicates). 160 nL of compounds at different concentrations was added to a 384-well plate. 40 µL of 1× TLB (TLB: Tag-lite buffer) was added to each well, and the mixture was shaken at room temperature for 15 minutes. A 15 mL centrifuge tube added with 5 mL of 1×TLB was prepared in advance. The frozen labeled cells were thawed in a water bath at 37°C (for 1 to 2 minutes), and the thawed cells were quickly transferred to the above 15 mL centrifuge tube. The mixture was mixed well and centrifuged at 1,000 g at room temperature for 5 minutes. The supernatant was removed, and the cells were resuspended by adding 2.7 mL 1× TLB. A new 384-well plate was taken, and 10 µL of mixed cells were added into the corresponding wells according to the assay design. 5 µL of 4× compound solution and 5 µL of 4× Tag-lite red fluorescent labeled ligand were added to each well. After incubation at room temperature for 1 hour, data were read using EnVision with an HTRF mode. The […] at 665nM and 615nM in each well were read respectively, and the ratio was calculated (Ratio=A665nM/B615nM). The IC50 value was calculated by means of GraphPad Prism8 software, where X represents logarithmic value of compound concentration; and Y represents ratio of A665nM/B615nM.
For `COC(=O)NS(=O)(=O)c1sc(CC(C)C)c(F)c1-c1ccc(Cn2ccnc2Cl)cc1` [Compound I-1, Methyl ((3-(4-((2-chloro-1H-imidazol-1-yl)methyl)phenyl)-4-fluoro-5-isobutylthiophen-2-yl)sulfonyl) carbamate], the IC50 was 6.67 nM.
`COC(=O)NS(=O)(=O)c1sc(CC(C)C)c(F)c1-c1ccc(Cn2ccnc2C(F)(F)F)cc1` [Compound I-2, Methyl ((4-fluoro-5-isobutyl-3-(4-((2-(trifluoromethyl)-1H-imidazol-1-yl)methyl)phenyl)thiophen-2-yl)sulfonyl) carbamate] gave an IC50 of 6.56 nM.
Work on `CCCCOC(=O)NS(=O)(=O)c1sc(CC(C)C)c(F)c1-c1ccc(Cn2ccnc2C(C)(C)O)cc1` [Compound I-3, Butyl ((4-fluoro-3-(4-((2-(2-hydroxypropan-2-yl)-1H-imidazol-1-yl)methyl)phenyl)-5-isobutylthiophen-2-yl)sulfonyl)carbamate] yielded an IC50 of 3.21 nM.
`CCCCOC(=O)NS(=O)(=O)c1sc(CC(C)C)c(F)c1-c1ccc(Cn2ccnc2C(F)(F)F)cc1` [Compound I-4, Butyl ((4-fluoro-5-isobutyl-3-(4-((2-(trifluoromethyl)-1H-imidazol-1-yl)methyl)phenyl)thiophen-2-yl)sulfonyl)carbamate] was tested, and the IC50 was 3.46 nM.
`Cc1c(CC(C)C)sc(S(=O)(=O)NC(=O)OC[C@H](C)O)c1-c1ccc(Cn2ccnc2C(F)(F)F)cc1` [Compound I-11, (2S)-2-hydroxypropyl ((5-isobutyl-4-methyl-3-(4-((2-(trifluoromethyl)-1H-imidazol-1-yl)methyl)phenyl)thiophen-2-yl)sulfonyl)carbamate] showed an IC50 of 4.49 nM.
Work on `Cc1c(CC(C)C)sc(S(=O)(=O)NC(=O)OC[C@@H](C)O)c1-c1ccc(Cn2ccnc2C(F)(F)F)cc1` [Compound I-12, (2R)-2-hydroxypropyl ((5-isobutyl-4-methyl-3-(4-((2-(trifluoromethyl)-1H-imidazol-1-yl)methyl)phenyl)thiophen-2-yl)sulfonyl)carbamate] yielded an IC50 of 3.88 nM.
`Cc1c(CC(C)C)sc(S(=O)(=O)NC(=O)OC[C@H](C)O)c1-c1ccc(Cn2ccnc2Cl)cc1` [Compound I-16, (2S)-2-hydroxypropyl ((3-(4-((2-chloro-1H-imidazol-1-yl)methyl)phenyl)-4-methyl-5-isobutylthiophen-2-yl)sulfonyl)carbamate] showed an IC50 of 4.49 nM.
In the case of `Cc1c(CC(C)C)sc(S(=O)(=O)NC(=O)OC[C@@H](C)O)c1-c1ccc(Cn2ccnc2Cl)cc1` [Compound I-17, (2R)-2-hydroxypropyl ((3-(4-((2-chloro-1H-imidazol-1-yl)methyl)phenyl)-4-methyl-5-isobutylthiophen-2-yl)sulfonyl)carbamate], the IC50 is reported as 3.88 nM.
For `Cc1c(CC(C)C)sc(S(=O)(=O)NC(=O)OCCO)c1-c1ccc(Cn2ccnc2Cl)cc1` [Compound I-18, 2-hydroxyethyl ((3-(4-((2-chloro-1H-imidazol-1-yl)methyl)phenyl)-5-isobutyl-4-methylthiophen-2-yl)sulfonyl)carbamate], the IC50 was 3.52 nM.
Work on `Cc1c(CC(C)C)sc(S(=O)(=O)NC(=O)NCc2ccccn2)c1-c1ccc(Cn2ccnc2C(F)(F)F)cc1` [Compound I-24] yielded an IC50 of 4.41 nM.
